Assay results from patent US6933296B2, “Compounds effective as β2-adrenoreceptor agonists as well as PDE4-inhibitors” (Altana Pharma B.V., priority 2000, dated 2005).

Experiments:
human eosinophils = assay: Inhibition of C5a-stimulated chemiluminescence in human eosinophils; type: cell-based; conditions: 100 nM C5a, 100 nM salbutamol included as additional cAMP trigger; for IC30: Eosinophil, read-out: Inhibition of C5a-stimulated chemiluminescence [-logIC30 (mol/l)] (converted)
Excerpt: c) Inhibition of C5a-stimulated Chemiluminescence in Human Eosinophils
Eosinophils were purified essentially as described in detail elsewhere (Hatzelmann A, Tenor H and Schudt C, Differential effects of non-selective and selective phosphodiesterase inhibitors on human eosinophil functions. Brit J Pharmacol 114: 821-831, 1995). Briefly, total granulocytes were first purified from blood (anticoagulated with 0.3% w/v sodium citrate) by dextran sedimentation, centrifugation on Ficoll Paque and hypotonic lysis of remaining red blood cells. For the further purification of the eosinophil fraction the magnetic cell separation (MACS) system from Miltenyi Biotec (Bergisch-Gladbach, Germany) was applied. Eosinophils were separated from neutrophils by negative selection using anti-CD16 microbeads in a two-step protocol using D- and BS-(formerly called B2-) separation columns. By this method human eosinophils with a purity of >99% and a viability of >97% were obtained.
The chemiluminescence (CL) assay was essentially performed as described (Hatzelmann et al., 1995). Briefly, measurements were performed in a “CL-buffer” (140 mM NaCl, 5 mM KCl, 1 mM MgCl2, 10 mM HEPES, pH 7.4) containing 1 mM CaCl2, 1 mg/ml glucose, 0.05% (w/v) BSA, 10 μM luminol and 4 μM microperoxidase (all values correspond to final concentrations in the assays) in a total volume of 0.5 ml at a cell concentration of 10^6 cells/ml. Aliquots (0.4 ml) of the cell suspension (containing luminol and microperoxidase) were preincubated for 5 min at 37° C. in the absence or presence of inhibitors (0.05 ml). Stock solutions of the inhibitors (10 mM) were prepared in DMSO and diluted 1:100 (v/v) in CL-buffer; subsequent dilutions were made in 1% DMSO/CL-buffer to achieve the final drug concentrations in the assays at a DMSO concentration of 0.1% (v/v) which by itself only weakly affected the CL response. […] After preincubation, the assays were transferred into a “Multi-biolumat LB 9505C” from Berthold (Wildbad, Germany) and stimulated by the addition of 0.05 ml C5a (dissolved in CL-buffer; 100 nM final concentration). CL was continuously recorded for 1 min (C5a) and the AUC (area under the curve) calculated. Inhibition of CL by the compounds under these conditions is given as −log IC30 (mol/l).

PDE4 = assay: Inhibition of PDE4 activity (cytosol from human neutrophils, [3H]cAMP hydrolysis); type: biochemical; conditions: 0.5 μM cAMP, Motapizone 1 μM, DMSO 0.5% for (some of) examples 1-19, 1% from example 20
Procedure: Method for Measuring Inhibition of PDE4 Activity
PDE4 activity was determined as described by Thompson et al. (Adv Cycl Nucl Res 10: 69-92, 1979) with some modifications (Bauer and Schwabe, Naunyn-Schmiedeberg's Arch Pharmacol 311: 193-198, 1980). At a final assay volume of 200 μl (96well microtiter plates) the assay mixture contained 20 mM Tris-HCl (pH 7.4), 5 mM MgCl2, 0.5 μM cAMP, [^3H]cAMP (about 30,000 cpm/assay), the test compound and an aliquot of cytosol from human neutrophils which mainly contains PDE4 activity as described by Schudt et al. (Naunyn-Schmiedeberg's Arch Pharmacol 344: 682-690, 1991); the PDE3-specific inhibitor Motapizone (1 μM) was included to suppress PDE3 activity originating from contaminating platelets.
To minimize problems with the solubility of the compounds, starting from example 20 serial dilutions of the compounds were prepared directly in DMSO and further diluted 1:100 (v/v) in the assays to obtain now the final concentrations of the inhibitors at a DMSO concentration of 1% (v/v) which by itself only slightly affected PDE4 activity.
After preincubation for 5 min at 37° C., the reaction was started by the addition of substrate (cAMP) and the assays were incubated for further 15 min at 37° C. 50 μl of 0.2 N HCl was added to stop the reaction and the assays were left on ice for about 10 min. Following incubation with 25 μg 5′-nucleotidase (Crotalus atrox snake venom) for 10 min at 37° C., the assays were loaded on QAE Sephadex A-25 (1 ml bed volume). The columns were eluted with 2 ml of 30 mM ammonium formiate (pH 6.0) and the eluate was counted for radioactivity. Results were corrected for blank values (measured in the presence of denatured protein) which were below 5% of total radioactivity. […] The IC50-values for the compounds according to the invention for the inhibition of the PDE4 activity were determined from the concentration-inhibition curves by nonlinear-regression.

β2-adrenoceptor = biological target: T1, β2-adrenoceptor (Cavia porcellus, UniProt Q8K4Z4); assay: β2-Adrenoceptor agonistic activity in isolated guinea-pig trachea (relaxation); type: cell-based; conditions: half-maximal relaxation of isolated guinea-pig trachea pre-treated with 3×10^−7 M RP 73401; for EC50: read-out: β2-Adrenoceptor agonistic affinity [-logEC50 (mol/l)] (converted)
T1 construct: Male guinea-pigs (350-450 g) were killed by a sharp blow on the head and exsanguination, after that the trachea was removed; from tissue; host or cells: isolated guinea-pig trachea (ring chains in organ bath)
Excerpt: b) β2-Adrenoceptor Agonistic Activity in Isolated Guinea-pig Trachea
Male guinea-pigs (350-450 g) were killed by a sharp blow on the head and exsanguination, after that the trachea was removed. After clearing off adhering tissue the trachea was cut into single rings which were tied together forming up to six 4- to 5-ring chains which were suspended in 10-ml organ baths containing Krebs buffer of the following composition (mM): NaCl 118, KCl 5.2, CaCl2 1.9, MgSO4 0.56, NaH2PO4 0.8, NaHCO3 25.0, and glucose 11.1, maintained at 37° C. and continuously aerated with a mixture of 95% O2 and 5% CO2. The end of the chain was tied at the bottom of the tissue bath and connected to a force-displacement transducer (Type K-30, Hugo Sachs Elektronik, Germany) for the recording of isometric tension changes and then placed under 1.5 to 2 g of tension. After a 60 min equilibration period, during which time the preparations were repeatedly washed and the spontaneous contraction plateaud, each tracheal preparation was pre-treated with 3×10^−7 M of RP 73401 for total inhibition of PDE4, which caused relaxation of the tissue between 30 and 40% of maximum (Harris et al., 1989, JPET 251: 199-206). After stabilization of the relaxant response to RP 73401, the test drugs were administered in a cumulative manner (factor 3), each concentration remaining in contact with the trachea until the […] response reached a plateau, before addition of the next higher concentration. At the end of the test drug administration, which caused maximal relaxation the tissue (verified in control experiments for each test drug by additional administration of 10^−6 M (−)-isoprenaline), a high concentration of the β-adrenoceptor antagonist, dl-sotalol (3−6×10^−4 M), was additionally given to assess whether the relaxant response of the trachea to test compound was due to β2-adrenoceptor stimulation. dl-Sotalol nearly completely reversed the relaxation amplitude to the test compounds and was taken as evidence for their β2-adrenoceptor agonistic property. The relaxant response to test compound was expressed as percent determined between the relaxant amplitude after that reached by RP 73401 (0%) and the maximal relaxation obtained prior to dl-sotalol administration (100%). EC50 values for a half-maximal relaxation of the tissue by test compound were graphically interpolated from 12 to 16 individual concentration-response curve. The −log EC50 values (mol/l) thus obtained were taken as a measure for β2-adrenoceptor agonistic activity of the test compounds.

T1 sequence (Q8K4Z4 whole entry): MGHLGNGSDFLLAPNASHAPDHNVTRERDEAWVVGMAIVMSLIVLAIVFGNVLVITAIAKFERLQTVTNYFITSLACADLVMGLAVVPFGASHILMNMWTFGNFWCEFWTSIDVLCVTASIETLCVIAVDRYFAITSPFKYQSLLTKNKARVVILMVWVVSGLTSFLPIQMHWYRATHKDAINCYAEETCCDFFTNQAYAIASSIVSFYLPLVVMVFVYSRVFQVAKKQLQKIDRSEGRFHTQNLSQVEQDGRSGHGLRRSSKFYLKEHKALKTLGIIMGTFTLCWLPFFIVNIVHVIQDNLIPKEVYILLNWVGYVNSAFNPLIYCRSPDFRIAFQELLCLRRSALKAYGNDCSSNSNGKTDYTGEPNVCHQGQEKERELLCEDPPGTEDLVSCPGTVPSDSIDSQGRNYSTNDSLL

| Compound | IC30 (human eosinophils) | Inhibition of PDE4 activity [-logIC50] (PDE4) | EC50 (β2-adrenoceptor) | melting point | Inhibition of C5a-stimulated chemiluminescence [-logIC30 (mol/l)] (human eosinophils) | β2-Adrenoceptor agonistic affinity [-logEC50 (mol/l)] (β2-adrenoceptor) |
| --- | --- | --- | --- | --- | --- | --- |
| COc1ccc(C2=NN(C3CCN(C(=O)CCCNCC(O)c4cc(Cl)c(N)c(C#N)c4)CC3)C(=O)[C@@H]3CC=CC[C@H]23)cc1OC.O=C(O)/C=C/C(=O)O (stereo partly drawn) [Compound 20, 2-Amino-3-chloro-5-[2-(4-{4-[(4aS,8aR)-4-(3,4-dimethoxy-phenyl)-1-oxo-4a,5,8,8a-tetrahydro-1H-phthalazin-2-yl]-piperidin-1-yl}-4-oxo-butylamino)-1-hydroxy-ethyl]-benzonitrile fumarate] | 79.4 nM | 10.2 | 2.29 nM | – | – | – |
| COc1ccc(C2=NN(CCCCNCC(O)c3cc(Cl)c(N)c(Cl)c3)C(=O)[C@H]3CCCC[C@@H]23)cc1OC.O=C(O)/C=C/C(=O)O (relative stereo) [Compound 1, (cis)-2-(4-[{2-(4-amino-3,5-dichlorophenyl)-2-hydroxyethyl}-amino]-1-butyl)-4-(3,4-dimethoxyphenyl)-4a,5,6,7,8,8a-hexahydro-2H-phthalazin-1-one fumarate] | 3020 nM | 6.97 | 12.9 nM | 85 to 88 °C | – | – |
| (cis)-4-(3,4-dimethoxyphenyl)-2-(6-[{2-(4-hydroxy-3-hydroxymethylphenyl)-2-hydroxyethyl}amino]-1-hexyl)-4a,5,6,7,8,8a-hexahydro-2H-phthalazin-1-one hemifumarate [Compound 14] | – | – | – | – | 5.30 mol/l | 7.24 -log(mol/l) |
| (cis)-2-(6-[{2-(4-amino-3-chloro-5-cyanophenyl)-2-hydroxyethyl}amino]-1-hexyl)-4-(3,4-dimethoxyphenyl)-4a,5,8,8a-tetrahydro-2H-phthalazin-1-one hemifumarate [Compound 13] | – | – | – | – | 6.52 mol/l | 6.91 -log(mol/l) |
| (cis)-2-(6-[{2-(4-amino-3,5-dichlorophenyl)-2-hydroxyethyl}-amino]-1-hexyl)-4-(3,4-dimethoxyphenyl)-4a,5,8,8a-tetrahydro-2H-phthalazin-1-one hemifumarate [Compound 6] | – | – | – | – | 6.00 mol/l | 7.60 -log(mol/l) |
| (cis)-2-(4-[{2-(4-amino-3-chloro-5-cyanophenyl)-2-hydroxyethyl}amino]-1-butyl)-4-(3,4-dimethoxyphenyl)-4a,5,8,8a-tetrahydro-2H-phthalazin-1-one hemifumarate [Compound 11] | – | – | – | – | 6.22 mol/l | 8.11 -log(mol/l) |
| (cis)-2-(8-[{2-(4-amino-3,5-dichlorophenyl)-2-hydroxyethyl}-amino]-1-octyl)-4-(3,4-dimethoxyphenyl)-4a,5,6,7,8,8a-hexahydro-2H-phthalazin-1-one hemifumarate [Compound 3] | – | – | – | – | 6.52 mol/l | 6.77 -log(mol/l) |
| (cis)-2-(5-[{2-(4-amino-3-chloro-5-cyanophenyl)-2-hydroxyethyl}amino]-1-pentyl)-4-(3,4-dimethoxyphenyl)-4a,5,8,8a-tetrahydro-2H-phthalazin-1-one hemifumarate [Compound 12] | – | – | – | – | 5.92 mol/l | 8.61 -log(mol/l) |
| (cis)-2-(6-[{2-(4-amino-3,5-dichlorophenyl)-2-hydroxyethyl}-amino]-1-hexyl)-4-(3,4-dimethoxyphenyl)-4a,5,6,7,8,8a-hexahydro-2H-phthalazin-1-one hemifumarate [Compound 2] | – | – | – | – | <5 mol/l | 6.86 -log(mol/l) |
